What was measured:
[1] = test system: rheumatoid arthritis model, DBA-1J Mice [류마티스 관절염 모델]; assay: Arthritis score in rheumatoid arthritis animal model, dose regimen study, Experiment 6; type: in vivo, mouse
TNF-α [2] = assay: TNF-α expression inhibition in RAW264.7 macrophages vs PS1145 (ELISA), Experiment 1-1; type: cell-based; settings: Fig. 1
TNF-α [3] = assay: TNF-α expression inhibition in Raw264.7, comparison with DMARDs, Experiment 2-1; type: cell-based; settings: for TNF-α expression: 6 h pretreatment, LPS 10 ng/mL, MTX 344 nM, HCQ 610 nM, PYR 50 ng/mL, CsA 391 ng/mL, AZA 25 ng/mL, SFZ 750 ng/mL
STAT3 = STAT3 activity (nuclear translocation) in Raw264.7, Experiment 3; type: cell-based; settings: 50 ng/ml, 2 h pretreatment; LPS 100 ng/ml 16 h; Fig. 6
TNF-α [4] = assay: TNF-α expression inhibition in Raw264.7 by treatment time, Experiment 1-2; type: cell-based; settings: LPS 100 ng/ml
[5] = test system: rheumatoid arthritis model, DBA-1J Mice [류마티스 관절염 모델]; assay: Histopathological examination in rheumatoid arthritis animal model, dose regimen study, Experiment 6; type: in vivo, mouse; settings: Day 14
TNF-α [6] = assay: TNF-α expression inhibition in Raw264.7, comparison with hydroxychloroquine and proguanil, Experiment 2-3; type: cell-based
NF-ĸB(p65) = assay: NF-kB activity (p65 nuclear translocation) in Raw264.7, Experiment 4; type: cell-based; settings: 50 ng/ml, 2 h pretreatment; LPS 100 ng/ml 2 h; Fig. 7

CCc1nc(N)nc(N)c1-c1ccc(Cl)cc1 [피리메타민, Pyrimethamine]
Arthritis score ([1]; Day 5, G11: Py 5 mg/kg QD PO): 5.8±2.5 total score | Arthritis score ([1]; Day 5, G12: Py 15 mg/kg/day QD PO): 5.5±1.5 total score | Arthritis score ([1]; Day 7, G7: Py 1 mg/kg/day QD IP): 9.2±1.5 total score | Arthritis score ([1]; Day 7, G8: Py 1 mg/kg/day BID PO): 9.5±1.5 total score | Arthritis score ([1]; Day 7, G9: Py 1 mg/kg/day QD PO): 9.3±2.0 total score | Arthritis score ([1]; Day 7, G10: Py 3 mg/kg/day BID PO): 7.8±2.9 total score | Arthritis score ([1]; Day 7, G11: Py 5 mg/kg QD PO): 6.7±2.2 total score | Arthritis score ([1]; Day 7, G12: Py 15 mg/kg/day QD PO): 6.3±2.0 total score | Arthritis score ([1]; Day 9, G7: Py 1 mg/kg/day QD IP): 9.8±1.9 total score | Arthritis score ([1]; Day 9, G8: Py 1 mg/kg/day BID PO): 10.3±2.2 total score | Arthritis score ([1]; Day 9, G9: Py 1 mg/kg/day QD PO): 10.5±2.7 total score | Arthritis score ([1]; Day 9, G10: Py 3 mg/kg/day BID PO): 8.2±2.9 total score | Arthritis score ([1]; Day 9, G11: Py 5 mg/kg QD PO): 7.5±3.0 total score | Arthritis score ([1]; Day 9, G12: Py 15 mg/kg/day QD PO): 7.5±2.1 total score | Arthritis score ([1]; Day 12, G7: Py 1 mg/kg/day QD IP): 11.2±2.5 total score | Arthritis score ([1]; Day 12, G8: Py 1 mg/kg/day BID PO): 11.7±2.7 total score | Arthritis score ([1]; Day 12, G9: Py 1 mg/kg/day QD PO): 12.0±2.6 total score | Arthritis score ([1]; Day 12, G10: Py 3 mg/kg/day BID PO): 9.8±2.9 total score | Arthritis score ([1]; Day 12, G11: Py 5 mg/kg QD PO): 8.8±2.5 total score | Arthritis score ([1]; Day 12, G12: Py 15 mg/kg/day QD PO): 7.7±2.1 total score | Arthritis score ([1]; Day 14, G7: Py 1 mg/kg/day QD IP): 11.7±2.7 total score | Arthritis score ([1]; Day 14, G8: Py 1 mg/kg/day BID PO): 12.3±2.9 total score | Arthritis score ([1]; Day 14, G9: Py 1 mg/kg/day QD PO): 12.7±2.9 total score | Arthritis score ([1]; Day 14, G10: Py 3 mg/kg/day BID PO): 10.5±3.0 total score | Arthritis score ([1]; Day 14, G11: Py 5 mg/kg QD PO): 9.5±2.6 total score | Arthritis score ([1]; Day 14, G12: Py 15 mg/kg/day QD PO): 8.2±2.0 total score | Arthritis score (in words) ([1]; Py 1 mg/kg/day QD PO and IP, 1 and 3 mg/kg/day BID PO, 5 mg/kg/day QD PO): 관절염 지수가 개선되지 않은 | Arthritis score (in words) ([1]; Py 15 mg/kg/day QD PO): 관절염 지수가 현저하게 감소 | TNF-α expression (TNF-α [2]; pyrimethamine 2, 10, 50 ng/ml): TNF-α의 발현량이 현저하게 줄어들었으며 | TNF-α expression compared with PS1145 (TNF-α [2]; pyrimethamine 10 or 50 ng/ml vs PS1145 20 uM): 비교예(PS1145)에 비해 TNF-α의 발현이 보다 현저하게 줄어드는 | TNF-α expression (TNF-α [3]; 2hr): 101.3 pg/mL | TNF-α expression (TNF-α [3]; 24hr): 963.4 pg/mL | TNF-α expression inhibition compared with comparative examples (TNF-α [3]; drug treatment 8 h or 24 h, pyrimethamine 50 ng/ml): 비교예들에 비해 TNF-α의 발현량을 월등히 억제하였고 | STAT3 nuclear translocation (STAT3): LPS 16 시간 자극에 의한 STAT3의 핵이동을 억제함 | TNF-α expression, concentration dependence (TNF-α [4]; 2 or 50 ng/ml, 1 or 2 h): TNF-α의 발현량이 피리메타민의 농도 의존적으로 줄어드는 | TNF-α expression (TNF-α [4]; PYR 2 ng/ml, 1hr): 916.0 pg/mL | TNF-α expression (TNF-α [4]; PYR 2 ng/ml, 2hr): 1101.2 pg/mL | TNF-α expression (TNF-α [4]; PYR 50 ng/ml, 1hr): 686.4 pg/mL | TNF-α expression (TNF-α [4]; PYR 50 ng/ml, 2hr): 889.0 pg/mL | Efficacy by histopathology compared with hydroxychloroquine and tofacitinib (in words) [5]: 히드록시클로로퀸과 토파시티닙에 비해 보다 우수한 효과 | Efficacy by histopathology compared with methotrexate (in words) [5]: 메토트렉세이트와 유사한 수준의 관절염 치료 효능 | Therapeutic efficacy by histopathology (in words) [5]: 농도 의존적으로 치료 효능을 보였다 | Bone destruction ([5]; G7: Py 1 mg/kg/day QD IP): 2.5±0.5 | Cartilage damage ([5]; G7: Py 1 mg/kg/day QD IP): 2.2±1.0 | Histopathological examination, total ([5]; G7: Py 1 mg/kg/day QD IP): 7.7±1.5 | Synovium proliferation ([5]; G7: Py 1 mg/kg/day QD IP): 3.0±0.0 | Bone destruction ([5]; G8: Py 1 mg/kg/day BID PO): 2.8±0.4 | Cartilage damage ([5]; G8: Py 1 mg/kg/day BID PO): 2.3±1.2 | Histopathological examination, total ([5]; G8: Py 1 mg/kg/day BID PO): 7.8±2.4 | Synovium proliferation ([5]; G8: Py 1 mg/kg/day BID PO): 2.7±0.8 | Bone destruction ([5]; G9: Py 1 mg/kg/day QD PO): 2.5±0.8 | Cartilage damage ([5]; G9: Py 1 mg/kg/day QD PO): 2.3±0.8 | Histopathological examination, total ([5]; G9: Py 1 mg/kg/day QD PO): 7.8±1.6 | Synovium proliferation ([5]; G9: Py 1 mg/kg/day QD PO): 3.0±0.0 | Bone destruction ([5]; G10: Py 3 mg/kg/day BID PO): 2.8±0.4 | Cartilage damage ([5]; G10: Py 3 mg/kg/day BID PO): 2.0±0.6 | Histopathological examination, total ([5]; G10: Py 3 mg/kg/day BID PO): 7.8±0.8 | Synovium proliferation ([5]; G10: Py 3 mg/kg/day BID PO): 3.0±0.0 | Bone destruction ([5]; G11: Py 5 mg/kg QD PO): 2.0±0.9 | Cartilage damage ([5]; G11: Py 5 mg/kg QD PO): 1.7±0.8 | Histopathological examination, total ([5]; G11: Py 5 mg/kg QD PO): 6.7±1.5 | Synovium proliferation ([5]; G11: Py 5 mg/kg QD PO): 3.0±0.0 | Bone destruction ([5]; G12: Py 15 mg/kg/day QD PO): 2.2±0.4 | Cartilage damage ([5]; G12: Py 15 mg/kg/day QD PO): 1.5±0.5 | Histopathological examination, total ([5]; G12: Py 15 mg/kg/day QD PO): 6.3±0.8 | Synovium proliferation ([5]; G12: Py 15 mg/kg/day QD PO): 2.7±0.5 | TNF-α expression (TNF-α [6]; PY 0.2 uM, HCQ 0.61 uM, PG 5 uM, LPS 10 ng/mL, 24 h co-treatment): 667.9 | TNF-α expression inhibition (TNF-α [6]; drug treatment 2 h or 24 h, pyrimethamine 0.2 μM, proguanil 5 μM): 히드록시클로로퀸과 비교하였을 때 피리메타민의 TNF-α 발현량 억제능이 월등함 | NF-ĸB(p65) activity (NF-ĸB(p65)): NF-ĸB(p65)의 활성이 현저히 저하

Source: patent KR20210056931A, “피리메타민을 유효성분으로 포함하는 면역 관련 질환의 치료 또는 예방용 약학 조성물” (priority 2019, dated 2021)
